According to patent US9211313B2, “Methods and compound to inhibit Ca2+ permeable cation conductance” (priority 2011, dated 2015):

Tests used:
Type in all cases: cell-based
KCa3.1 = molecular target: T1, KCa3.1 (Homo sapiens, UniProt O15554); conditions: 1 μM; intact human AA cells, 1 μM A23187, extracellular Ca2+; n=3
T1 construct: KCa3.1 activity stimulated in intact human AA cells by 1 μM A23187; endogenous in cells; host or cells: intact human AA red blood cells

[1] = tested on: SAD sickle mouse red cells; test: Fluo-3 fluorescence measurement of [Ca2+]i during deoxygenation, SAD cells; conditions: 1 μM; SAD red cells
Method: Blood was withdrawn by cardiac puncture or from the tail vein of C57B16/J wildtype mice, SAD sickle mice, or Berkeley sickle mice into heparinized syringes by IACUC-approved protocols of Beth Israel Deaconess Medical Center. Buffy coat-depleted cells were washed 5 times in standard mouse red cell wash solution containing (in mM) 172 choline Cl, 10 sucrose, 10 Na Tris-MOPS, pH 7.4, resuspended in storage solution, and kept at 4° C. until use.
Fluorescence measurements of cytosolic [Ca^2+] ([Ca^2+]i): After removal of plasma and buffy coat by aspiration, human or mouse red cells were washed three times at room temperature and suspended in modified Hank's solution containing (in mM), 137 NaCl, 5.4 KCl, 1 CaCl2, 1 MgCl2, 0.8 NaK phosphate, 5.6 glucose, and 10 Na HEPES, pH 7.4. Dilute cell suspensions were settled on polylysine-coated coverslips forming the bottom of an open perfusion chamber (2.5 cm diameter, 1 cm depth) and washed again 3 times.
Measurement of relative changes in [Ca^2+]i by Fluo-3 fluorescence emission was previously validated in intact human (Yang et al. 2000, Blood, 95(7):2421-2425; Andrews et al. 2002, Blood, 199(9):3392-3399) and mouse red cells (Akel et al. 2007, Amer. J. Physiol., 292(5):C1759-1767). Attached red cells were loaded in the dark with the fluorescent non-ratiometric Ca^2+ indicator Fluo-3-AM (10 μM, Molecular Probes, Eugene, Oreg.) at 37° C. for 1 hr, then washed and incubated 15 min further to allow de-esterification of intracellular dye. The open perfusion chamber containing dye-loaded cells was mounted on an Olympus IMT-2 inverted epifluorescence microscope equipped with CoolSNAP CCD camera (Photometrics, Tucson, Ariz.). Fluo-3 in cells imaged through a 60× objective was excited by mercury-xenon illumination passed through a 495ds20 filter. Fluorescence emission (proportional to [Ca^2+]i) from a 535ds20 bandpass filter was collected from all attached single cells within the arbitrarily selected visual field. Emission image acquisition was controlled by a Metafluor digital imaging system (Universal Imaging, West Chester, Pa.).
Fluo-3 fluorescence from attached cells on each coverslip was recorded 60 sec in room air and then for 10 min after onset of perfusion chamber flushing with humidified 100% N2. The normalized increase in Fluo-3 fluorescence in SS cells subjected to this deoxygenation procedure was indistinguishable from that observed during superfusion of cells in a closed perfusion chamber via syringe pump with bath previously bubbled for 60 min with 100% N2 (n=62 cells from 2 SS patients, not shown). The y-axis value of 0% change in Fluo-3 fluorescence intensity represented mean intensity recorded from all cells within the coverslip visual field during the 60 sec prior to deoxygenation.

[2] = tested on: deoxygenation-activated Ca2+-permeable conductance in human SS cells; test: On-cell patch clamp of deoxygenation-activated Ca2+-permeable conductance, CaCl2 in pipette; conditions: 1 μM in the pipette; -Vp=-25 mV
Method: Blood cell preparation: Human SS and AA blood was obtained under IRB-approved protocols of Children's Hospital and Beth Israel Deaconess Medical Center. After buffy coat removal and 5 washes in standard human red cell wash solution containing (in mM) 150 choline Cl, 1 MgCl, and 10 Tris-MOPS, pH 7.4, red cells were resuspended in storage solution containing (in mM) 145 KCl, 15 NaCl, and 10 HEPES, pH 7.4, then kept at 4° C. until used. […]
Mouse red cells allowed to settle on coverslips were superfused 15 min with bath solution containing (in mM) either 150 mM Na methanesulfonate, 10 Na EDTA, and 10 Na HEPES, pH 7.4; or 140 NaCl, 4 KCl, 1CaCl2, 1 MgCl2, 10 Na HEPES, pH 7.4. […] The resulting bath pO2 was 18 mm Hg as measured by oxygen electrode (WPI). […]
On-cell patch clamp: Borosilicate pipettes (Corning 7052) pulled with a Narishige two stage puller or a Sutter P97 puller and fire-polished to resistances of 10-20 MΩ were front-filled and then backfilled. […] For study of deoxygenation-induced monovalent cation permeation in the absence of bath Ca^2+ and Mg^2+ recorded in SAD and Berkeley mouse cells and in human cells, symmetric bath and pipette solutions contained (in mM) 150 Na methanesulfonate, 10 Na EDTA, and 10 Na HEPES, pH 7.4. […]
On-cell patch currents were recorded with the Axopatch 1-D amplifier (Axon Instruments/Molecular Devices, Sunnyvale, Calif.). […]

T1 sequence (O15554 whole entry): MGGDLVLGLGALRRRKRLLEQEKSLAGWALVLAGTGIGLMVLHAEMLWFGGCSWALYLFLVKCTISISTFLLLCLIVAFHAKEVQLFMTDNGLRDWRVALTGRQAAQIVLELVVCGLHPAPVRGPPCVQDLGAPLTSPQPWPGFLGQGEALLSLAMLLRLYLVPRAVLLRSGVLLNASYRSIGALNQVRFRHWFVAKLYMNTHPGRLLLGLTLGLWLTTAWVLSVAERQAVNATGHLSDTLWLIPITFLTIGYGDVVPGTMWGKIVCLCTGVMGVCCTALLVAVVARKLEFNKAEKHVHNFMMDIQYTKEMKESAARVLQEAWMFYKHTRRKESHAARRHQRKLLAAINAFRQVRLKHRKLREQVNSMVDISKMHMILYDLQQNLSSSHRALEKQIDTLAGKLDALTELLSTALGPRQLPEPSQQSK

Grammastola spatulata mechanotoxin 4 (GCLEFWWKCNPNDDKCCRPKLKCSKLFKLCNFSF; listed as Grammastola spatulata) [GsMTx-4]
effect on KCa3.1 activity, cell shrinkage (KCa3.1): no effect | effect on increased [Ca2+]i accompanying deoxygenation [1]: completely inhibited | effect on deoxygenation-induced increase in NPo, Ca2+ in the pipette [2]: prevented
